Data: patent US20230256059A1, “COMPOSITIONS FOR TREATING RESPIRATORY TRACT INFECTION AND USES THEREOF” (Lateral IP Pty Ltd, priority 2020, published 2023)
Where two headings read alike, the source gives them in different places. Bridge positions count the residues as written; N and C are the ends. Peptide text beside a SMILES is read from it.

Key:
[1] = system: SARS-CoV-2; test: SARS-CoV-2 infection of Vero cells, cytopathic effect inhibition assay; format: cell-based
[2] = system: HKx31 (H3N2) IAV; parameters: species or system C57BL/6 mice; details: mouse, in vivo; for IAV-associated lethality: 5 mg/kg
[3] = system: HKx31 (H3N2) IAV; test: Assessment of lung oedema and vascular leakage; parameters: species or system C57BL/6 mice; details: mouse, in vivo
[4] = system: BAL cells; format: in vivo, C57BL/6 mice; details: day 4 post-infection
[5] = system: HKx31; test: HKx31 infection of human PBECs, infectious virus in cell supernatants; format: cell-based; details: 24 hours following HKx31 infection
[6] = system: IL-6, MCP-1/CCL2, IFNγ, IL-10, IL-12p70, TNFα, IFNα, IFNβ, IFN λ2/3; test: Quantification of cytokines in mouse BAL fluid and sera (CBA, ELISA); format: in vivo, C57BL/6 mice; details: day 4 post-infection
Description: (§1) For virus infection studies, groups of 8 male C57BL/6 mice were randomized. […] Bronchoalveolar lavage (BAL) fluid was immediately obtained following euthanisation by flushing the lungs three times with 1 mL of PBS. Lungs were then removed and frozen immediately in liquid nitrogen. Titres of infectious virus in lung homogenates were determined by standard plaque assay on MDCK cells.
To detect cytokines, BAL fluid was collected and stored at −80° C. Levels of IL-6, MCP-1/CCL2, IFNγ, IL-10, IL-12p70, and TNFα proteins were determined by cytokine bead array (CBA) using the mouse inflammation kit (Becton Dickinson). Levels of mouse IFNα were determined by sandwich ELISA using mouse monoclonal clone F18 (Thermo Scientific) and rabbit polyclonal antibodies (PBL) (Thomas et al., 2014). Levels of mouse IFNβ were determined by sandwich ELISA using mouse monoclonal clone 7F-D3 (Abcam) and rabbit polyclonal antibodies (PBL) (Thomas et al., 2014). Mouse IFN λ2/3 was quantified by ELISA (R&D Systems).

[7] = system: HKx31 (H3N2) IAV; test: Titres of infectious virus in lung homogenates by standard plaque assay on MDCK cells; format: in vivo, C57BL/6 mice; details: day 4 post-infection; for reduction in levels of infectious virus in lung tissues: daily therapeutic 20 mg/kg intranasal from day 1
Description: as §1

[8] = system: respiratory tract infection by a virus; test: Case studies: oral AOD9604 in subjects with flu-like symptoms; format: in vivo, human
From the text: The subject is a person who presented with flu-like symptoms. The subject reported to have been free of flu-like symptoms over the past 8 years.
The subject developed a very sore throat. On awakening the next day, the sore throat was more severe and their nose was running (rhinorrhea) and becoming worse throughout the day. Other symptoms that developed during the day included: • a persistent deep phlegmy cough; • high temperature; • body sweats; • chills; • muscle soreness; and • fatigue.
Later that evening, the subject developed a loss of appetite, and an exacerbation of chills, body sweats, rhinorrhoea and persistent coughing. At around 8 pm that evening, the subject was administered ˜1 mg AOD9604 (SEQ ID NO:2), orally.
The subject is a person who in the afternoon presented with the flu, with symptoms including a persistent deep phlegmy cough, high temperature, body sweats, chills, muscle soreness and fatigue. The subject was administered ˜1 mg AOD9604 (SEQ ID NO:2), orally. The subject recalls sleeping well that evening.

[9] = 20 mg/kg intranasal every 48 h
[10] = cited from earlier work
[11] = daily therapeutic 20 mg/kg intranasal from day 1
[12] = prophylactic 20 mg/kg intranasal, every 48 h

CC[C@H](C)[C@H](NC(=O)[C@H](CCCNC(=N)N)NC(=O)[C@H](CC(C)C)NC(=O)[C@@H](N)Cc1ccc(O)cc1)C(=O)N[C@H](C(=O)N[C@@H](CCC(N)=O)C(=O)N[C@H]1CSSC[C@@H](C(=O)NCC(=O)N[C@@H](Cc2ccccc2)C(=O)O)NC(=O)[C@H](CO)NC(=O)CNC(=O)[C@H](CCC(=O)O)NC(=O)[C@H](C(C)C)NC(=O)[C@H](CO)NC(=O)[C@H](CCCNC(=N)N)NC1=O)C(C)C [LAT8881, H-YLRIVQCRSVEGSCGF-OH] (H-YLRIVQCRSVEGSCGF-OH; disulfide 7-14)
SARS-CoV-2 infection of Vero cells (cytopathic effect inhibition) [1]: did not alter SARS-CoV-2 infection of Vero cells
clinical signs of disease (weight loss, limited mobility, laboured breathing) [2]: reduced clinical signs of disease including weight loss
delay of IAV-associated lethality [2]: 48 to 72 h
onset of clinical signs of severe disease (weight loss, limited mobility, laboured breathing) [2]: delayed the onset of clinical signs of severe disease
survival of mice (from 0% in PBS controls) [2]: approximately 30%
IAV-associated lethality [2]: delayed IAV-associated lethality
BAL fluid protein concentrations (vascular leakage) [3]: significantly reduced
lung wet-to-dry ratios [3]: no significant differences
inflammatory Ly6C+ macrophages in the airways [4, 11]: significantly fewer
neutrophils in BAL [4, 11]: significantly fewer
total BAL cellularity [4, 11]: significantly reduced
total numbers of dendritic cells [4, 11]: comparable to PBS-treated infected controls
dendritic cells in the airways [4, 12]: no significant numerical difference
inflammatory Ly6C+ macrophages in the airways [4, 12]: no significant numerical difference
leukocyte cell death (Annexin V and PI staining of BAL cells) [4, 12]: no significant differences
macrophages in BAL [4, 12]: significantly fewer
neutrophils in BAL [4, 12]: significantly fewer
total BAL cellularity [4, 12]: significantly reduced
levels of infectious virus in cell supernatants [5]: no significant impact
IL-6 in the BAL fluid [6, 11]: significantly reduced
TNFα levels in BAL fluid [6, 11]: less profound reduction
concentration of IFN λ2/3 in BAL fluid [6, 11]: not significantly different
concentration of IFNα in BAL fluid [6, 11]: not significantly different
concentration of IFNβ in BAL fluid [6, 11]: not significantly different
concentration of IL-10 in BAL fluid [6, 11]: not significantly different
concentration of IL-12p70 in BAL fluid [6, 11]: not significantly different
levels of CCL2 in BAL fluid [6, 11]: limited levels of CCL2
reduction of IFNγ in BAL fluid [6, 11]: 2 fold
reduction of IL-6 in the serum [6, 11]: approximately 1.6 fold
concentration of CCL2 in BAL fluid [6, 12]: comparable with PBS-treated IAV infected controls
concentration of IL-6 in BAL fluid [6, 12]: comparable with PBS-treated IAV infected controls
concentration of IL-10 in BAL fluid [6, 12]: comparable with PBS-treated IAV infected controls
concentration of IL-12p70 in BAL fluid [6, 12]: comparable with PBS-treated IAV infected controls
concentration of TNFα in BAL fluid [6, 12]: comparable with PBS-treated IAV infected controls
levels of IFN λ2/3 [6, 12]: no significant differences
levels of IFNα [6, 12]: no significant differences
levels of IFNβ [6, 12]: no significant differences
reduction of IFNγ in BAL fluid [6, 12]: 2 fold
reduction of IL-6 in the serum [6, 12]: 1.5 fold
reduction in levels of infectious virus in lung tissues [7]: 1.5 fold
reduction in infectious viral loads in the lung ([7]; prophylactic: 20 mg/kg intranasal 24 h prior to infection, then every 48 h): 1.6 fold
remaining symptoms on waking about 7 hours later ([8]; Case study 1: ~1 mg orally): the only remaining symptoms were a runny nose and a slight cough
symptoms of the flu by the morning ([8]; Case study 2: ~1 mg orally): all symptoms of the flu had disappeared except for a slight runny nose and a dry cough
time until reported symptom-free ([8]; Case study 2: ~1 mg orally, after the morning following dosing): around 24 hours
alleviation of symptoms of respiratory tract infection (conclusion of case studies) ([8]; ~1 mg orally, two case studies): capable of alleviating the symptoms of respiratory tract infection by a virus
weight loss or clinical signs of disease in uninfected mice [9]: did not result in weight loss or any clinical signs of disease

H-CRSVEGSCGF-OH (cysteine pairing not given here; listed as Homo sapiens) [LAT9991F]
IAV-associated lethality [2]: delayed IAV-associated lethality
stability as metabolite in human serum [10]: known stable metabolite of LAT8881 in human serum
lung wet-to-dry ratios [3]: no significant differences
inflammatory Ly6C+ macrophages in the airways [4, 11]: significantly fewer
neutrophils in BAL [4, 11]: significantly fewer
numbers of macrophages in BAL [4, 11]: reduced numbers of macrophages
total BAL cellularity [4, 11]: significantly reduced
total numbers of dendritic cells [4, 11]: comparable to PBS-treated infected controls
TNFα levels in BAL fluid [6, 11]: less profound reduction
concentration of IFN λ2/3 in BAL fluid [6, 11]: not significantly different
concentration of IFNα in BAL fluid [6, 11]: not significantly different
concentration of IFNβ in BAL fluid [6, 11]: not significantly different
concentration of IL-10 in BAL fluid [6, 11]: not significantly different
concentration of IL-12p70 in BAL fluid [6, 11]: not significantly different
reduction of IFNγ in BAL fluid [6, 11]: 2.3 fold
reduction of IL-6 in the serum [6, 11]: approximately 1.6 fold
reduction in levels of infectious virus in lung tissues [7]: 2.4 fold
